# Source: patent US8604085B2, “Bupropion hydrobromide polymorphs” (Valeant International Bermuda, priority 2008, dated 2013)
# Columns and labels:
# Type in all cases: physicochemical
# [1] = Stability tests on bupropion hydrobromide polymorphs in humidity chamber (XRD pattern); details: 40° C., 85% R.H., open sample-holder
# Experimental: Stability tests were performed on bupropion hydrobromide Form I, Form II, Form III, Form IV, Form V and Form VI. The powders were stored in a controlled atmosphere (85% R.H.) at 40° C. Form I and Form II were stored for 7 and 30 days respectively, while the other forms were stored only for 30 days. The sample was positioned on the sample-holder which was introduced, without any cover, into the humidity chamber at 40° C. The layer of the sample on the sample-holder was about 0.5 cm.
# In addition, stability tests were performed on bupropion hydrobromide Form VII.
# [2] = TGA and DSC characterization
# Experimental: The PXRD diffraction patterns were obtained on X-ray powder diffraction PANalytical X′pert Pro equipped with X′Celerator, in a measurement range between 3 and 40 2 theta. All the DSC experiments were performed with a DSC 7 Perkin Elmer instrument in a temperature range between 25° C. and 250° C. with a heating rate of 10° C./min.
# All the TGA experiments were conducted with a TGA 7 Perkin Elmer instrument in a temperature range between 39° C. and 310° C. with a heating rate of 10° C./min.
# PXRD, DSC, TGA and IR analyses were obtained for Bupropion Hydrobromide Polymorph Form I, Form II, Form III, Form IV, Form V, Form VI, and Form VII. PXRD analyses were obtained for the amorphous form. With respect to the PXRD analyses, the Peak List is shown for Form I, Form II, Form III, Form IV, Form V, Form VI, Form VII and the amorphous form in Table 56, Table 57, Table 58, Table 59, Table 60, Table 61, Table 62 and Table 63 respectively.
# [3] = Slurry experiments at room temperature (thermodynamic stability of crystal forms, X-ray diffraction); details: for Slurry Result / Slurry result, large scale: room temperature; for Slurry Result: form by XRD; for Slurry result, large scale: 0.5 g of powder in 10 mL
# Experimental: Slurry experiments of Form I were performed at room temperature to verify if Form I is the thermodynamic crystal form. 0.050 g of Form I was suspended in 2 ml of solvent and stirred for 1 week. The sample was filtered and analyzed by X-ray diffraction. In the large majority of the experiments, Form I converts into Form II. […] By 1,4-Dioxane, a new crystal form was obtained named Form V. See Table 46 for the Form I slurries results (7 days).
# Further slurry experiments of Form I were performed at room temperature using 0.5 g of powder in 10 mL of solvent to confirm the results obtained even in large scale.
# 0.050 g of Form I were suspended in 2 ml of solvent and stirred at room temperature for 4 weeks (30 days). The sample was filtered and analyzed by X-ray diffraction. By 1,4-Dioxane, Form V was obtained. By tetrahydrofuran, Form II and Form VII were obtained. […] See Table 47 for the Form I slurries results (30 days).
# (§1) Slurry experiments of mixtures of Form I and Form II were performed at room temperature to verify their thermodynamic stability. 0.040 g of Form I+0.040 g of Form II were suspended in 4 ml of solvent and stirred for 1 week (7 days). The samples were filtered and analyzed by X-ray diffraction. By 1,4-Dioxane, Form V was obtained. […] See Table 48 for the Form I+Form II slurries results (7 days).
# as §1, with “II” for “I”, “III” for “II”, “II+0.040” for “I+0.040”, “49” for “48”, “II+Form III” for “I+Form II”
# as §1, with “II” for “I”, “IV” for “II”, “II+0.040” for “I+0.040”, “50” for “48”, “II+Form IV” for “I+Form II”
# as §1, with “II” for “I”, “V” for “II”, “II+0.040” for “I+0.040”, “51” for “48”, “II+Form V” for “I+Form II”
# as §1, with “II” for “I”, “VI” for “II”, “II+0.040” for “I+0.040”, “52” for “48”, “II+Form VI” for “I+Form II”
# as §1, with “II” for “I”, “VII” for “II”, “II+0.040” for “I+0.040”, “53” for “48”, “II+Form VII” for “I+Form II”
smiles,measurement,setting,value
"Br.CC(NC(C)(C)C)C(=O)c1cccc(Cl)c1 (single isomer, unassigned) [Form I]",XRD pattern / crystal form after storage,[1]; 7 days,did not show modification
same,XRD pattern / crystal form after storage,[1]; 30 days,did not show modification
same,TGA (mass change),[2]; successive mass-loss steps listed per polymorph,−100.04%
same,DSC (onset ° C.),[2]; successive thermal events listed per polymorph,236.81 °C
same,Thermodynamic stability of the crystal form as shown by slurry experiments,[3],metastable form
same,Slurry Result,"[3]; 1,2-Dimethoxy Ethane, 7 days",Form II
same,Slurry Result,"[3]; 1,2-Dimethoxy Ethane, 30 days",Form II
same,Slurry Result,"[3]; 1,4-Dioxane, 7 days",Form V
same,Slurry Result,"[3]; 1,4-Dioxane, 30 days",Form V
same,Slurry Result,"[3]; 1-Octanol, 7 days",Form II
same,Slurry Result,"[3]; 1-Octanol, 30 days",Form II
same,Slurry Result,"[3]; 3-Pentanone, 7 days",Form II
same,Slurry Result,"[3]; 4-Methyl-2-Pentanone, 7 days",Form II
same,Slurry Result,"[3]; 4-Methyl-2-Pentanone, 30 days",Form II
same,Slurry Result,"[3]; Acetone, 7 days",Form II
same,Slurry Result,"[3]; Acetone, 30 days",Form II
same,Slurry Result,"[3]; Benzonitrile, 7 days",Form II + VII
same,Slurry Result,"[3]; Cyclohexane, 7 days",Form I
same,Slurry Result,"[3]; Cyclohexane, 30 days",Form II
same,Slurry Result,"[3]; Diethyl Carbonate, 7 days",Form II
same,Slurry Result,"[3]; Diethyl Carbonate, 30 days",Form II
same,Slurry Result,"[3]; Diethyl Ether, 30 days",Form II
same,Slurry Result,"[3]; Diethyl ether, 7 days",Form II
same,Slurry Result,"[3]; Ethyl Acetate (second line of the table), 30 days",Form II
same,"Slurry result, large scale",[3]; Ethyl Acetate,convert into Form II
same,Slurry Result,"[3]; Ethyl Benzoate, 7 days",Form II
same,Slurry Result,"[3]; Ethyl Formate, 7 days",Form II
same,Slurry Result,"[3]; Ethyl Formate, 30 days",Form II
same,Slurry Result,"[3]; Ethyl acetate, 7 days",Form II
same,Slurry Result,"[3]; Ethyl acetate, 30 days",Form II
same,Slurry Result,"[3]; Iso-Propyl Ether, 7 days",Form II
same,Slurry Result,"[3]; Iso-Propyl Ether, 30 days",Form II
same,Slurry Result,"[3]; Isopropyl Acetate, 7 days",Form II
same,Slurry Result,"[3]; Isopropyl Acetate, 30 days",Form II
same,Slurry Result,"[3]; Mesitylene, 7 days",Form II
same,Slurry Result,"[3]; Methyl Benzoate, 7 days",Form II
same,Slurry Result,"[3]; Methyl Benzoate, 30 days",Form II
same,Slurry Result,"[3]; Methyl Ethyl Ketone, 7 days",Form II
same,Slurry Result,"[3]; Methyl Ethyl Ketone, 30 days",Form II
same,Slurry Result,"[3]; Methyl-Cyclohexane, 7 days",Form I
same,Slurry Result,"[3]; Methyl-Cyclohexane, 30 days",Form II
same,Slurry Result,"[3]; Nitrobenzene, 7 days",Form II
same,Slurry Result,"[3]; Propyl Acetate, 7 days",Form II
same,Slurry Result,"[3]; Tert-Butanol, 7 days",Form II
same,Slurry Result,"[3]; Tetrahydrofuran, 7 days",Form II
same,Slurry Result,"[3]; Tetrahydrofuran, 30 days",Form II + VII
same,Slurry Result,"[3]; Toluene, 7 days",Form II
same,Slurry Result,"[3]; Toluene, 30 days",Form II
same,Slurry Result,"[3]; n-Hexan, 7 days",Form II
same,Slurry Result,"[3]; n-Hexan, 30 days",Form II
same,"Slurry result, large scale",[3]; p-Xylene,convert into Form II
same,Slurry Result,"[3]; p-Xylene, 7 days",Form II
same,Slurry Result,"[3]; p-Xylene, 30 days",Form II
same,Slurry Result,"[3]; t-Butyl Methyl Ether, 7 days",Form II
same,Slurry Result,"[3]; t-Butyl Methyl Ether, 30 days",Form II
